In patent US20020035998A1, “Method for treatment of cancer and infectious disease” (priority 1995, published 2002):

What was measured:
Daudi target cells = experiment: NK cell cytotoxicity (NKCC), 6-hour 51Cr-release assay against Daudi target cells; assay type: cell-based, human; conditions: for NKCC after treatment with Medium: no IFN; for potency and effect in intensifying baseline NKCC and restoring the NK cell's response to IFN-α: compared with serotonin, Table 4; for NKCC (Cell Lysis %) ± SEM after treatment with IFN / NKCC (Cell Lysis %) ± SEM after treatment with Ran + IFN / NKCC (Cell Lysis %) ± SEM after treatment with Ran: Percoll fraction 8; for NKCC (Cell Lysis %) ± SEM after treatment with Ran + IFN: agonist 10^−4 M plus ranitidine 10^−4 M plus IFN-α 25 U/ml; for NKCC (Cell Lysis %) ± SEM after treatment with Ran: agonist 10^−4 M plus ranitidine 10^−4 M; for influence on the effect of serotonin on NKCC: ketanserin and ondansetron in equimolar concentrations
Text: (§1) MNC were obtained from peripheral venous blood from healthy human blood donors by Ficoll-Hypaque centrifuging, followed by Percoll density-gradient fractionation (Timonen and Saksela, 1980, J. Immunol. Methods 36, 285-291; Hellstrand and Hermodsson, 1990, Scand. J. Immunol. 31, 631-645).
(§2) The target cells used in these experiments were K562, an NK-cell sensitive erythroleukemic cell line, or Daudi, a relatively NK-insensitive EBV-transformed B-cell lymphoblastoid cell line.
(§3) The NKCC was determined six times as the specific ^51Cr-release for a NMNC: target-cell ratio of between 30:1 and 3.8:1 in two-fold dilution gradients. The suspensions of MNC/target cells were incubated in microplates at 37° C. for 6 hours (Daudi) or 16 hours (K562). The supernatant solution was then collected and examined for radioactivity in a gamma counter. The maximum ^51Cr-release was measured in target cell cultures treated with Triton X-100. The NKCC was calculated as the cell lysis % by the formula 100×(experimental release−spontaneous release/maximum release−spontaneous release)=cell lysis %.
(§4) In the results shown in Table 2, MNC from five different donors were used. All compounds were added to mixtures of MNC and target cells at the start of a 6 h (Daudi) or 16 h (K562) effecter and target cell incubation. The effecter cells were obtained from Percoll fractions 7-8, containing 33-55% monocytes.
In the experiment shown in Table 3, culture medium (control), histamine (10^−4 M), dimaprit (10^−4 M), ranitidine (ran) (10^−4 M) and/or IFN-α (25 U/ml) were added at the start of a 6-hour ^51Cr release assay using Daudi target cells. The data are representative of three similar experiments. NKCC is given as mean cell lysis %±SEM of six determinations. The effecter cells were recovered from a low-density Percoll fraction 8, containing around 40% monocytes.
In the experiment shown in Table 4, culture medium (control), serotonin, 8-OH-DPAT (+)-ALK and/or IFN-α (25 U/ml) were added at the start of a 6-hour ^51Cr-release assay against Daudi target cells. The NKCC is given as cell lysis %±SEM of six determinations. The effector cells were recovered from the low-density Percoll fraction 7, containing around 36% monocytes.

K562 target cells = experiment: NK cell cytotoxicity (NKCC), 16-hour 51Cr-release assay against K562 target cells; assay type: cell-based, human; conditions: for cytotoxicity against K562 in the NK cell-concentrated lymphocyte fraction: eluted lymphocytes without monocytes, 16-hour assay; for basal cytotoxicity of lymphocytes in mixtures of monocytes and lymphocytes / monocyte induced inhibition of the NK cell response to IFN-α: mixtures of eluted monocytes and NK cell-enriched lymphocytes; for NK cell cytotoxicity (NKCC) after treatment: serotonin 10^−4 M and/or IFN-α 25 U/ml, 16 h, 10^4 K562, mean ± SEM of six
Text: as §1, §2, §3
A low-density Percoll fraction was separated by counterflow centrifuge elusion (CCE) in a monocyte and in a lymphocyte fraction. The monocyte fraction was concentrated to >90% purity whereupon the contaminating cells consisted of large lymphocytes. The lymphocyte fractions obtained by CCE contained <3% monocytes, determined by morphology and Leu-M3 (CD14) antigen expression. The lymphocytes were […], […] , CD3^+/16^−/56^− T cells (45-50%), CD3^+/16^+/56^+ cells (1-5%), determined by flow cytometry.
J The eluted monocytes and/or the NK cell-concentrated low-density lymphocytes were treated with IFN-α and histamine/serotonin. The compounds were added, separately or in combination, to mixtures of MNC and K562 target cells at the start of a 16-hour ^51Cr-release assay. The cytotoxicity against K562 in the NK cell-concentrated lymphocyte fraction was increased by IFN-α and unaffected by histamine or serotonin. […] The addition of eluted monocytes to the NK cell concentrated lymphocytes suppressed the baseline cytotoxicity to K562.
In the experiments reported in Table 1, eluted lymphocytes were mixed with monocytes as shown in the table, in a total volume of 150 μl. The data are NKCC (mean ±SEM) of six determinations. Serotonin 10^−4 M and/or IFN-α (25 U/ml) was added at the start of a 16-hour microcytotoxicity test against 10^4 K562 target cells.
as §4
Cells from the monocyte-containing Percoll fraction 8 were incubated with culture medium, histamine (10^−4 M) or serotonin (10^−4 M) in the presence of IFN-α (0-100 U/ml). The data shown are NKCC (cell lysis %; mean±SEM of six determinations). The compounds were added at the start of a 16 h microcytotoxicity test against K 562 target cells.

[1] = agonist 10^−4 M plus IFN-α 25 U/ml, Daudi 6 h, Percoll fraction 7
[2] = agonist 10^−4 M, Daudi 6 h, Percoll fraction 7, around 36% monocytes
[3] = agonist 10^−4 M plus IFN-α 25 U/ml, Daudi 6 h
[4] = named agent(s) only, no further additive: histamine, dimaprit, ranitidine 10^−4 M, IFN-α 25 U/ml, Daudi 6 h, Percoll fraction 8, around 40% monocytes

CCCN(CCC)[C@H]1CCc2cccc(O)c2[C@H]1C (relative stereo) [(+)-ALK-3, cis-8-hydroxy-1-methyl-2-(di-n-propylamino)tetralin, reference compound]
NKCC after treatment with IFN (Daudi target cells; [1]): 40.4 ± 1%
NKCC after treatment with Medium (Daudi target cells; [2]): 9.1 ± 1%
potency and effect in intensifying baseline NKCC and restoring the NK cell's response to IFN-α (Daudi target cells): comparable to that of serotonin

CCCN(CCC)C1CCc2cccc(O)c2C1 (stereo not drawn) [8-OH-DPAT, 8-hydroxy-2-(di-n-propylamino)tetralin, reference compound]
NKCC after treatment with IFN (Daudi target cells; [1]): 43.3 ± 1%
NKCC after treatment with Medium (Daudi target cells; [2]): 8.8 ± 1%
potency and effect in intensifying baseline NKCC and restoring the NK cell's response to IFN-α (Daudi target cells): comparable to that of serotonin

CN(C)CCCSC(=N)N [Dimaprit, dimaprit, reference compound]
NKCC (Cell Lysis %) ± SEM after treatment with IFN (Daudi target cells; [3]): 32.6 ± 1%
NKCC (Cell Lysis %) ± SEM after treatment with Ran + IFN (Daudi target cells; Daudi 6 h): 0.5 ± 0.5%
NKCC (Cell Lysis %) ± SEM after treatment with Ran (Daudi target cells; Daudi 6 h): 0.4 ± 0.4%
NKCC (cell lysis % ± SEM) (Daudi target cells; [4]): 6.4 ± 1%
effect of histamine on monocyte-induced suppression of resting and IFN-α-activated NK cells: influence of the agent (Daudi target cells; simultaneous treatment, Table 3): imitated

NCCc1c[nH]cn1 [Histamine, histamine]
NKCC (cell lysis % ± SEM) (Daudi target cells; Exp 4, Daudi, 30:1, histamine 10^−4 M plus IFN 25 U/ml): 31.7 ± 1%
NKCC (cell lysis % ± SEM) (Daudi target cells; Exp 4, Daudi, 30:1, histamine 10^−5 M plus IFN 25 U/ml): 28.3 ± 1%
NKCC (cell lysis % ± SEM) (Daudi target cells; Exp 4, Daudi, 30:1, histamine 10^−5 M, medium (no IFN)): 3.5 ± 2%
NKCC (cell lysis % ± SEM) (Daudi target cells; Exp 4, Daudi, 30:1, histamine 10^−6 M plus IFN 25 U/ml): 14.1 ± 1%
NKCC (cell lysis % ± SEM) (Daudi target cells; Exp 4, Daudi, 30:1, histamine 10^−6 M, medium (no IFN)): 1.1 ± 0.3%
NKCC (cell lysis % ± SEM) (Daudi target cells; Exp 4, Daudi, MNC/target 30:1, histamine 10^−4 M, medium (no IFN)): 4.4 ± 1%
NKCC (cell lysis % ± SEM) (Daudi target cells; Exp 5, Daudi, 30:1, histamine 10^−4 M plus IFN 25 U/ml): 61.3 ± 3%
NKCC (cell lysis % ± SEM) (Daudi target cells; Exp 5, Daudi, 30:1, histamine 10^−4 M, medium (no IFN)): 13.5 ± 1%
NKCC (cell lysis % ± SEM) (Daudi target cells; Exp 5, Daudi, 30:1, histamine 10^−5 M plus IFN 25 U/ml): 52.3 ± 2%
NKCC (cell lysis % ± SEM) (Daudi target cells; Exp 5, Daudi, 30:1, histamine 10^−5 M, medium (no IFN)): 9.7 ± 1%
NKCC (cell lysis % ± SEM) (Daudi target cells; Exp 5, Daudi, 30:1, histamine 10^−6 M plus IFN 25 U/ml): 31.7 ± 1%
NKCC (cell lysis % ± SEM) (Daudi target cells; Exp 5, Daudi, 30:1, histamine 10^−6 M, medium (no IFN)): 2.5 ± 1%
NKCC (Cell Lysis %) ± SEM after treatment with IFN (Daudi target cells; [3]): 31.7 ± 0.3%
NKCC (Cell Lysis %) ± SEM after treatment with Ran + IFN (Daudi target cells; Daudi 6 h): 1.6 ± 0.2%
NKCC (Cell Lysis %) ± SEM after treatment with Ran (Daudi target cells; Daudi 6 h): 1.5 ± 0.3%
NKCC (cell lysis % ± SEM) (Daudi target cells; [4]): 9.4 ± 0.3%
NKCC (cell lysis % ± SEM) (K562 target cells; Exp 1, K562, 15:1, histamine 10^−4 M plus IFN 25 U/ml): 76.4 ± 3%
NKCC (cell lysis % ± SEM) (K562 target cells; Exp 1, K562, 15:1, histamine 10^−5 M plus IFN 25 U/ml): 74.1 ± 1%
NKCC (cell lysis % ± SEM) (K562 target cells; Exp 1, K562, 15:1, histamine 10^−5 M, medium (no IFN)): 54.7 ± 1%
NKCC (cell lysis % ± SEM) (K562 target cells; Exp 1, K562, 15:1, histamine 10^−6 M plus IFN 25 U/ml): 66.0 ± 2%
NKCC (cell lysis % ± SEM) (K562 target cells; Exp 1, K562, 15:1, histamine 10^−6 M, medium (no IFN)): 39.2 ± 1%
NKCC (cell lysis % ± SEM) (K562 target cells; Exp 1, K562, MNC/target 15:1, histamine 10^−4 M, medium (no IFN), monocyte-containing Percoll fractions 7-8): 55.5 ± 1%
NKCC (cell lysis % ± SEM) (K562 target cells; Exp 2, K562, 15:1, histamine 10^−4 M plus IFN 25 U/ml): 67.9 ± 2%
NKCC (cell lysis % ± SEM) (K562 target cells; Exp 2, K562, 15:1, histamine 10^−4 M, medium (no IFN)): 32.4 ± 1%
NKCC (cell lysis % ± SEM) (K562 target cells; Exp 2, K562, 15:1, histamine 10^−5 M plus IFN 25 U/ml): 66.2 ± 1%
NKCC (cell lysis % ± SEM) (K562 target cells; Exp 2, K562, 15:1, histamine 10^−5 M, medium (no IFN)): 27.4 ± 1%
NKCC (cell lysis % ± SEM) (K562 target cells; Exp 2, K562, 15:1, histamine 10^−6 M plus IFN 25 U/ml): 55.4 ± 1%
NKCC (cell lysis % ± SEM) (K562 target cells; Exp 2, K562, 15:1, histamine 10^−6 M, medium (no IFN)): 23.2 ± 2%
NKCC (cell lysis % ± SEM) (K562 target cells; Exp 3, K562, 15:1, histamine 10^−4 M plus IFN 25 U/ml): 71.9 ± 1%
NKCC (cell lysis % ± SEM) (K562 target cells; Exp 3, K562, 15:1, histamine 10^−4 M, medium (no IFN)): 43.3 ± 1%
NKCC (cell lysis % ± SEM) (K562 target cells; Exp 3, K562, 15:1, histamine 10^−5 M plus IFN 25 U/ml): 66.5 ± 2%
NKCC (cell lysis % ± SEM) (K562 target cells; Exp 3, K562, 15:1, histamine 10^−5 M, medium (no IFN)): 38.6 ± 1%
NKCC (cell lysis % ± SEM) (K562 target cells; Exp 3, K562, 15:1, histamine 10^−6 M plus IFN 25 U/ml): 56.3 ± 2%
NKCC (cell lysis % ± SEM) (K562 target cells; Exp 3, K562, 15:1, histamine 10^−6 M, medium (no IFN)): 29.4 ± 1%
cytotoxicity against K562 in the NK cell-concentrated lymphocyte fraction (K562 target cells): unaffected
basal cytotoxicity of lymphocytes in mixtures of monocytes and lymphocytes (K562 target cells): restored
monocyte induced inhibition of the NK cell response to IFN-α (K562 target cells): eliminated

O=C(c1ccc(F)cc1)C1CCN(CCn2c(=O)[nH]c3ccccc3c2=O)CC1 [Ketanserin, reference compound]
influence on the effect of serotonin on NKCC (Daudi target cells; ranitidine 10^−4 M): did not influence the effect of serotonin

CNC(=C[N+](=O)[O-])NCCSCc1ccc(CN(C)C)o1 [Ran, ranitidine, reference compound]
NKCC (cell lysis % ± SEM) (Daudi target cells; [4]): 0.0 ± 0.1%

NCCc1c[nH]c2ccc(O)cc12 [Serotonin, serotonin]
NKCC after treatment with IFN (Daudi target cells; [1]): 44.3 ± 1%
NKCC after treatment with Medium (Daudi target cells; [2]): 10.4 ± 1%
NKCC after treatment with IFN (Daudi target cells; agonist 10^−5 M plus IFN-α 25 U/ml, Daudi 6 h, Percoll fraction 7): 33.2 ± 1%
NKCC after treatment with Medium (Daudi target cells; agonist 10^−5 M, Daudi 6 h, Percoll fraction 7): 4.5 ± 0.3%
NKCC after treatment with IFN (Daudi target cells; agonist 10^−6 M plus IFN-α 25 U/ml, Daudi 6 h, Percoll fraction 7): 12.3 ± 1%
NKCC after treatment with Medium (Daudi target cells; agonist 10^−6 M, Daudi 6 h, Percoll fraction 7): 2.2 ± 0.4%
cytotoxicity against K562 in the NK cell-concentrated lymphocyte fraction (K562 target cells): unaffected
basal cytotoxicity of lymphocytes in mixtures of monocytes and lymphocytes (K562 target cells): restored
monocyte induced inhibition of the NK cell response to IFN-α (K562 target cells): eliminated
NK cell cytotoxicity (NKCC) after treatment (K562 target cells; monocytes 0, lymphocytes 12 (×10^−4)): 34 ± 3%
NK cell cytotoxicity (NKCC) after treatment (K562 target cells; monocytes 6, lymphocytes 12 (×10^−4)): 31 ± 2%
NK cell cytotoxicity (NKCC) after treatment (K562 target cells; monocytes 12, lymphocytes 12 (×10^−4)): 31 ± 2%

Cc1nccn1CC1CCc2c(c3ccccc3n2C)C1=O (stereo not drawn) [ondansetron, reference compound]
influence on the effect of serotonin on NKCC (Daudi target cells; ranitidine 10^−4 M): did not influence the effect of serotonin
